Assay results reported in PubChem BioAssay AID179 (DTP/NCI, 2004).
Activity calls are given as the source filed them.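 Rule for the calls: active = compounds giving half or more protection of infected cells from virus-caused growth loss, again on retest; inactive = the rest.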

System: CEM cells HIV-1 protection, formazan growth assay
Assay: NCI AIDS Antiviral Assay
Details: for IC50: measured here: growth of uninfected CEM cells
Outline: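 Steps: treat uninfected and HIV-1-infected human CEM cells at five drug levels; quantify growth by soluble formazan; retest any compound reaching 50% protection; classify actives from the retest.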

In the case of COC(=O)C12C(=O)O[C@H](C)C1(O)C(C)C(=O)N2C (stereo not given in full), the outcome is reported as “inactive”.

For CSc1nc(N)cc(C(F)(F)F)n1, the EC50 was > 200 µM and the IC50 was > 200 µM.

CCCCCCCCCCCC(=O)N(C)CCS(=O)(=O)O was tested, and the outcome was “inactive”.

For O=S1(=O)C[C@@H](NCc2ccccc2)[C@H](NCc2ccccc2)C1, the EC50 was > 200 µM and the IC50 was > 200 µM.

Oc1ccc(O)c(-n2cccn2)c1 was tested, and the EC50 was > 14.1 µM and the IC50 was 7.24 µM.

With Nc1cc(Cl)ccc1SSc1ccc(Cl)cc1N the EC50 was > 200 µM and the IC50 was 12 µM.

With CC(=O)N=C(N=Nc1c(O)[nH]c2ccc(C)cc12)NC(C)=O the EC50 was > 200 µM and the IC50 was 148 µM.

With COc1ccccc1NC(=S)Nc1ccccn1 the EC50 was > 200 µM and the IC50 was > 200 µM.

In the case of C[N+](C)(C)CC(=O)N/N=C(/Cc1nc2ccc([N+](=O)[O-])cc2[nH]c1=O)C(=O)Nc1cc(C(F)(F)F)ccc1Cl, the EC50 is reported as > 295 µM and the IC50 is reported as 120 µM.

For CC(=O)OCC1OC(n2c3c(cc(C#N)c2=O)CCCCCC3)C(OC(C)=O)C(OC(C)=O)C1OC(C)=O (stereo not given), the EC50 was > 200 µM and the IC50 was 170 µM.

In the case of C=C(C(=O)OC)c1cc2ccccc2n1S(=O)(=O)c1ccccc1, the EC50 is reported as > 20 µM and the IC50 is reported as 3.02 µM.

For COC(=O)CCSSCCC(=O)OC, the EC50 was > 1050 µM and the IC50 was 182 µM.

[N-]=[N+]=NI1OC(=O)c2ccccc21 was tested, and the EC50 was > 200 µM and the IC50 was 55 µM.

Cc1cccc(C(C)C)c1NC(=O)CC1Sc2ccccc2NC1=O (stereo not given) was tested, and the EC50 was > 20.4 µM.

In the case of O=C1NC(=Nc2ccccc2)C(=Nc2ccccc2)N1c1ccccc1, the EC50 is reported as > 200 µM and the IC50 is reported as 14.8 µM.

For COc1cc(C2c3cc4c(cc3OC(NNC(N)=O)C2C)OCO4)cc(OC)c1O (stereo not given), the EC50 was > 200 µM and the IC50 was 0.525 µM.

In the case of O=C1CCCC2=C1CC1=C(CCCC1=O)N2c1cccc([N+](=O)[O-])c1, the EC50 is reported as > 186 µM and the IC50 is reported as 170 µM.

CCCCN(C)C(=O)C1=C(C)NC(C)=C(C(=O)N(C)CCCC)C1 was tested, and the EC50 was > 200 µM and the IC50 was 102 µM.

CCCCCCCCCCCCC(SCCNC(=O)CCNC(=O)C(O)C(C)(C)COP(=O)(O)OP(=O)(O)OCC1OC(n2cnc3c(N)ncnc32)C(O)C1OP(=O)(O)O)C(=O)NCC(N)=O (stereo not given) was tested, and the outcome was “inactive”.

In the case of CC(=O)OC1CCC2(C)C(C1)CC(OC(C)=O)C1C2CC(OC(C)=O)C2(C)C(C(C)CC(=O)C(=O)c3ccccc3)CCC12 (stereo not given), the EC50 is reported as > 6.17 µM and the IC50 is reported as 2.63 µM.

With NCc1ccccc1-c1c2nc(c(-c3ccccc3CN)c3ccc([nH]3)c(-c3ccccc3CN)c3nc(c(-c4ccccc4CN)c4ccc1[nH]4)C=C3)C=C2 the EC50 was > 9.77 µM and the IC50 was > 9.77 µM.

With Cc1ccc(C2=C(c3ccc(C)cc3)C(c3ccc(C)cc3)=C(c3ccc(C)cc3)C2=O)cc1 the EC50 was > 16.2 µM and the IC50 was > 16.2 µM.

In the case of Cc1[nH]n(-c2nc(O)c(C)c(=O)[nH]2)c(=O)c1CCO, the EC50 is reported as > 200 µM and the IC50 is reported as > 200 µM.

With CCCCCCCCCCCC(=O)Oc1c(Cl)cc(Cl)c(OC(=O)C(=O)Oc2c(Cl)cc(Cl)c(OC(=O)CCCCCCCCCCC)c2Cl)c1Cl the outcome was “inactive”.

In the case of CC(C)(C)n1c(=O)[nH]n(C2NN=Cc3cccc4cccc2c34)c1=O (stereo not given), the EC50 is reported as > 200 µM and the IC50 is reported as 24 µM.

O=C1c2ccccc2C(=O)C2OC12 (stereo not given) was tested, and the EC50 was > 20 µM and the IC50 was 0.977 µM.

With O=C(O)c1ccccc1-n1nc(C(=O)O)c(N=Nc2ccc(/C=C/c3ccc(N=Nc4c(C(=O)O)nn(-c5ccccc5C(=O)O)c4O)cc3S(=O)(=O)O)c(S(=O)(=O)O)c2)c1O the EC50 was > 0.977 µM and the IC50 was > 0.977 µM.

For CC(C)(C)OC(=O)N1CCCCC(CCCC#Cc2ccccc2)C1=O (stereo not given), the EC50 was > 38 µM and the IC50 was > 38 µM.

In the case of c1ccc(CSC2(SCc3ccccc3)CCCCC2)cc1, the EC50 is reported as > 200 µM and the IC50 is reported as 77.6 µM.

For CC1=NNC(=O)C1C1C=C(c2c[nH]c3ccccc23)OC1=O (stereo not given), the EC50 was > 200 µM and the IC50 was 102 µM.

With O/N=C(/CC(O)(C(F)(F)F)C(F)(F)F)c1ccccc1 the EC50 was > 200 µM and the IC50 was > 200 µM.

O=c1cc(NNc2ccccc2)[nH]c(=S)[nH]1 was tested, and the EC50 was > 200 µM and the IC50 was 12.3 µM.

With O=C(O)C1=Cc2cccc3cccc(c23)C1=O the outcome was “inactive”.
